Laboratory results taken from patent US3945994A, “Novel acid compounds” (Gist-Brocades N.V., priority 1973, dated 1976).
In brackets after ≈: the same amount, converted by molar mass.

What was measured:
Type in all cases: cell-based
[1] = system: Bacillus subtilis ATCC 6633; settings: ATCC6633, agar serial dilution, 24 hours at 37°C
[2] = system: Staphylococcus aureus A 321; settings: A321, agar serial dilution, 24 hours at 37°C
[3] = system: Staphylococcus aureus A 355'; settings: agar serial dilution, 24 hours at 37°C
[4] = system: Staphylococcus aureus A 2000; settings: A2000, agar serial dilution, 24 hours at 37°C
[5] = system: Staphylococcus aureus A 2001; settings: A2001, agar serial dilution, 24 hours at 37°C
[6] = system: Streptococcus haemolyticus A 266; settings: A266, agar serial dilution, 24 hours at 37°C
[7] = system: Streptococcus faecalis L 80; settings: Enterococcus faecalis, L80; agar serial dilution, 24 hours at 37°C
[8] = system: Diplococcus pneumoniae L 54; settings: Streptococcus pneumoniae, L54; agar serial dilution, 24 hours at 37°C
[9] = system: Pasteurella multocida A 723; settings: A723, agar serial dilution, 24 hours at 37°C
[10] = system: Klebsiella pneumoniae A 809; settings: A809, agar serial dilution, 24 hours at 37°C
Salmonella dublin P 43 = settings: Salmonella enterica, P43; agar serial dilution, 24 hours at 37°C
[11] = system: Salmonella typhimurium R 127; settings: Salmonella enterica, agar serial dilution, 24 hours at 37°C
Escherichia coli U 20 = settings: U20, agar serial dilution, 24 hours at 37°C
[12] = system: Pseudomonas aeruginosa H 10; settings: H10, agar serial dilution, 24 hours at 37°C
[13] = system: Pseudomonas aeruginosa 2396; settings: agar serial dilution, 24 hours at 37°C
[14] = system: Pseudomonas aeruginosa Wyeth A 1058; settings: WYETHA1058, agar serial dilution, 24 hours at 37°C
Proteus rettgeri A 821 = settings: Providencia rettgeri, A821; agar serial dilution, 24 hours at 37°C
Proteus mirabilis H 3 = settings: H3, agar serial dilution, 24 hours at 37°C
Proteus mirabilis A 1200 = settings: A1200, agar serial dilution, 24 hours at 37°C
Proteus morganii 2241 = settings: Morganella morganii, agar serial dilution, 24 hours at 37°C
[15] = system: Salmonella typhimurium R172; settings: Salmonella enterica, agar serial dilution, 24 hours at 37°C
[16] = system: Streptococcus haemolyticus A 1088; settings: A1088, agar serial dilution, 24 hours at 37°C
[17] = system: Haemophilus influenzae A 1030; test: micro serial dilution test, MIC; settings: A1030, micro serial dilution (between brackets), 30°C or 37°C, about 18 hours

| Structure (SMILES) | MIC [1] [µg/mL] | MIC [2] [µg/mL] | MIC [3] [µg/mL] | MIC [4] [µg/mL] | MIC [5] [µg/mL] | MIC [6] [µg/mL] | MIC [7] [µg/mL] | MIC [8] [µg/mL] | MIC [9] [µg/mL] | MIC [10] [µg/mL] | MIC (Salmonella dublin P 43) [µg/mL] | MIC [11] [µg/mL] | MIC (Escherichia coli U 20) [µg/mL] | MIC [12] [µg/mL] | MIC [13] [µg/mL] | MIC [14] [µg/mL] | MIC (Proteus rettgeri A 821) [µg/mL] | MIC (Proteus mirabilis H 3) [µg/mL] | MIC (Proteus mirabilis A 1200) [µg/mL] | MIC (Proteus morganii 2241) [µg/mL] | further results |
| --- | --- | --- | --- | --- | --- | --- | --- | --- | --- | --- | --- | --- | --- | --- | --- | --- | --- | --- | --- | --- | --- |
| CC1(C)S[C@@H]2[C@H](NC(=O)[C@H](NC(=O)NS(=O)(=O)Nc3ccccc3)c3ccccc3)C(=O)N2[C@H]1C(=O)O [VII, D-6-[α-{3-(phenylaminosulfonyl)-ureido}-benzylcarbonamido]-penicillanic acid] | 1 (≈ 1.83 µM) | 1 (≈ 1.83 µM) | 25 (≈ 45.7 µM) | 12.5 (≈ 22.8 µM) | 3 (≈ 5.48 µM) | 1 (≈ 1.83 µM) | 25 (≈ 45.7 µM) | 1 (≈ 1.83 µM) | 25 (≈ 45.7 µM) | 25 (≈ 45.7 µM) | 12.5 (≈ 22.8 µM) | 25 (≈ 45.7 µM) | 12.5 (≈ 22.8 µM) | 50 (≈ 91.3 µM) | 25 (≈ 45.7 µM) | 50 (≈ 91.3 µM) | 1.5 (≈ 2.74 µM) | 3 (≈ 5.48 µM) | 3 (≈ 5.48 µM) | 25 (≈ 45.7 µM) | – |
| CCOC(=O)CNS(=O)(=O)NC(=O)N[C@@H](C(=O)N[C@@H]1C(=O)N2[C@@H]1SC(C)(C)[C@@H]2C(=O)O)c1ccccc1 [X, D-6-[α-{3-(ethoxycarbonylmethylaminosulfonyl)-ureido}-benzylcarbonamido]-penicillanic acid] | 1 (≈ 1.79 µM) | 3 (≈ 5.38 µM) | 25 (≈ 44.8 µM) | 12.5 (≈ 22.4 µM) | 12.5 (≈ 22.4 µM) | 0.25 (≈ 0.448 µM) | 25 (≈ 44.8 µM) | 1.5 (≈ 2.69 µM) | 0.25 (≈ 0.448 µM) | 100 (≈ 179 µM) | 25 (≈ 44.8 µM) | 50 (≈ 89.7 µM) | 25 (≈ 44.8 µM) | > 100 | 100 (≈ 179 µM) | 25 (≈ 44.8 µM) | < 0.75 | 1.5 (≈ 2.69 µM) | 3 (≈ 5.38 µM) | 50 (≈ 89.7 µM) | – |
| Cc1noc(NS(=O)(=O)NC(=O)N[C@@H](C(=O)N[C@@H]2C(=O)N3[C@@H]2SC(C)(C)[C@@H]3C(=O)O)c2ccccc2)c1C [XIII, D-6-[α-{3-(3,4-dimethylisoxazol-5-yl-aminosulfonyl)ureido}-benzylcarbonamido]-penicillanic acid] | 0.5 (≈ 0.882 µM) | 1 (≈ 1.76 µM) | 25 (≈ 44.1 µM) | 12.5 (≈ 22.1 µM) | 3 (≈ 5.29 µM) | 0.12 (≈ 0.212 µM) | 12.5 (≈ 22.1 µM) | 1.5 (≈ 2.65 µM) | 0.12 (≈ 0.212 µM) | 100 (≈ 176 µM) | 25 (≈ 44.1 µM) | 50 (≈ 88.2 µM) | 12.5 (≈ 22.1 µM) | 100 (≈ 176 µM) | 50 (≈ 88.2 µM) | 25 (≈ 44.1 µM) | 3 (≈ 5.29 µM) | 12.5 (≈ 22.1 µM) | 6 (≈ 10.6 µM) | 100 (≈ 176 µM) | – |
| CCOC(=O)NS(=O)(=O)N[C@@H](C(=O)N[C@@H]1C(=O)N2[C@@H]1SC(C)(C)[C@@H]2C(=O)O)c1ccccc1 [XIX, D-6-[α-(ethoxycarbonylaminosulfonylamino)-benzylcarbonamido]-penicillanic acid] | 1 (≈ 2 µM) | 3 (≈ 5.99 µM) | 50 (≈ 99.9 µM) | 12.5 (≈ 25 µM) | 6 (≈ 12 µM) | 0.25 (≈ 0.499 µM) | 25 (≈ 49.9 µM) | 3 (≈ 5.99 µM) | 0.5 (≈ 0.999 µM) | > 100 | 50 (≈ 99.9 µM) | 100 (≈ 200 µM) | 100 (≈ 200 µM) | > 100 | 100 (≈ 200 µM) | 50 (≈ 99.9 µM) | 3 (≈ 5.99 µM) | 25 (≈ 49.9 µM) | 25 (≈ 49.9 µM) | > 100 | – |
| CC1(C)S[C@@H]2[C@H](NC(=O)[C@H](NC(=O)NS(=O)(=O)O)c3ccccc3)C(=O)N2[C@H]1C(=O)O [XVII, D-6-[α-{3-(sulfo)-ureido}-benzylcarbonamido]-penicillanic acid] | 0.5 (≈ 1.06 µM) | 3 (≈ 6.35 µM) | 12.5 (≈ 26.5 µM) | 12.5 (≈ 26.5 µM) | 12.5 (≈ 26.5 µM) | 0.12 (≈ 0.254 µM) | 25 (≈ 52.9 µM) | 0.25 (≈ 0.529 µM) | 0.12 (≈ 0.254 µM) | 100 (≈ 212 µM) | 6 (≈ 12.7 µM) | 50 (≈ 106 µM) | 25 (≈ 52.9 µM) | 50 (≈ 106 µM) | 25 (≈ 52.9 µM) | 25 (≈ 52.9 µM) | < 0.75 | < 0.75 | 3 (≈ 6.35 µM) | 50 (≈ 106 µM) | – |
| CC1(C)S[C@@H]2C(NC(=O)C(N)c3ccccc3)C(=O)N2[C@H]1C(=O)O (stereo partly drawn) [ampicillin, 6-(α-aminophenylacetamido) penicillanic acid, reference compound] | 0.025 (≈ 0.0715 µM) | 0.1 (≈ 0.286 µM) | 1.5 (≈ 4.29 µM) | 1.5 (≈ 4.29 µM) | 0.75 (≈ 2.15 µM) | – | – | 0.05 (≈ 0.143 µM) | 0.2 (≈ 0.572 µM) | 50 (≈ 143 µM) | 0.8 (≈ 2.29 µM) | – | 3 (≈ 8.59 µM) | > 100 | 50 (≈ 143 µM) | > 100 | 3 (≈ 8.59 µM) | 3 (≈ 8.59 µM) | 3 (≈ 8.59 µM) | – | MIC [15]: 3 µg/mL (≈ 8.59 µM) |
| CC(=O)OCC1=C(C(=O)O)N2C(=O)[C@@H](NC(=O)CC#N)[C@H]2SC1 [cephacetril, reference compound] | 0.12 (≈ 0.354 µM) | 0.75 (≈ 2.21 µM) | 1.5 (≈ 4.42 µM) | 1.5 (≈ 4.42 µM) | 0.5 (≈ 1.47 µM) | – | 12.5 (≈ 36.8 µM) | 0.5 (≈ 1.47 µM) | 6 (≈ 17.7 µM) | 6 (≈ 17.7 µM) | 12.5 (≈ 36.8 µM) | – | 6 (≈ 17.7 µM) | > 100 | > 100 | > 100 | 3 (≈ 8.84 µM) | 12.5 (≈ 36.8 µM) | 12.5 (≈ 36.8 µM) | > 100 | MIC [16]: 0.5 µg/mL (≈ 1.47 µM); MIC [15]: 12.5 µg/mL (≈ 36.8 µM); MIC [17]: 30 µg/mL (≈ 88.4 µM) |
| CC(=O)OCC1=C(C(=O)O)N2C(=O)[C@@H](NC(=O)[C@H](N)c3ccccc3)[C@H]2SC1 [cephaloglycin, 7-(α-aminophenylacetamido) cephalosporanic acid, reference compound] | 0.25 (≈ 0.617 µM) | 12.5 (≈ 30.8 µM) | 12.5 (≈ 30.8 µM) | 12.5 (≈ 30.8 µM) | 12.5 (≈ 30.8 µM) | – | > 100 | 6 (≈ 14.8 µM) | 50 (≈ 123 µM) | 6 (≈ 14.8 µM) | 12.5 (≈ 30.8 µM) | – | 1.5 (≈ 3.7 µM) | > 100 | > 100 | > 100 | 1.5 (≈ 3.7 µM) | 25 (≈ 61.7 µM) | 12.5 (≈ 30.8 µM) | 100 (≈ 247 µM) | MIC [16]: 0.25 µg/mL (≈ 0.617 µM); MIC [15]: 12.5 µg/mL (≈ 30.8 µM); MIC [17]: 125 µg/mL (≈ 308 µM) |
